Measured values published in paper PMC5734042, “Deciphering the Origin, Evolution, and Physiological Function of the Subtelomeric Aryl-Alcohol Dehydrogenase Gene Family in the Yeast Saccharomyces cerevisiae” (Applied and Environmental Microbiology, 2017).
Blank lines part the entries; values can stand above or below the molecule they belong to.

Experiments:
Conditions in all cases: NADPH co-substrate
PcAad1p = target: T1, PcAad1p (Phanerodontia chrysosporium, UniProt Q01752); test: spectrophotometric NADPH consumption at […] nm; format: biochemical
T1 construct: full length, plasmid pGS-21a-PcAad1, N-terminal His6-GST and C-terminal His6 tags kept, E. coli BL21 Star; coding primer starts ATGAACATCTGGGCACCCG (MNIWAP)
T1 sequence (Q01752 1-385): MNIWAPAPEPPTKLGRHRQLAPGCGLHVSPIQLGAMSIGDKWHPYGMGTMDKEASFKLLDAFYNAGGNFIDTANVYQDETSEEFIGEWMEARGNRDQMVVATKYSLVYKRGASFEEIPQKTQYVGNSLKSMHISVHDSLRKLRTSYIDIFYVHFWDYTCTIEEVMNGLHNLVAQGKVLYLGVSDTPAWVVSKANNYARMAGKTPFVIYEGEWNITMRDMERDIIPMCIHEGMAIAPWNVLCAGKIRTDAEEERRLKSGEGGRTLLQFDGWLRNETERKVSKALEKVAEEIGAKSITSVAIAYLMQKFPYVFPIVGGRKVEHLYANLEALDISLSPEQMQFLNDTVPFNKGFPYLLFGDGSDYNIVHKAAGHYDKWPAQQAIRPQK

ScAad10^-35Cp = target: T2, ScAad10^-35Cp (Saccharomyces cerevisiae, UniProt P47182); test: spectrophotometric NADPH consumption at […] nm; format: biochemical
T2 construct: gene AAD10; resurrected pseudogene: in-frame upstream 264 bp (88 residues) restored to annotated Aad10, stop TAG to CAG (Gln) at nt -35; annotated natural ORF (YJR155W) lacks these residues; N-terminal His6-GST and C-terminal His6 tags, E. coli BL21 Star
T2 sequence (P47182 1-288): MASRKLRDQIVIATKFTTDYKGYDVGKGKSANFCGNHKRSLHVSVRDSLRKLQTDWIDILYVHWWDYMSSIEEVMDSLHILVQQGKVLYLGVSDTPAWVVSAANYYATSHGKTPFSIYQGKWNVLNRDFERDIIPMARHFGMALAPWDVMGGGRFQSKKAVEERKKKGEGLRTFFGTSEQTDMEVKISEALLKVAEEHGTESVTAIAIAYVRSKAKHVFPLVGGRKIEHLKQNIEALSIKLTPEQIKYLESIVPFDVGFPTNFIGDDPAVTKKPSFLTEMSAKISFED

purified protein = substrate: O=Cc1ccc(CO)o1; test: purified protein; format: biochemical, Phanerodontia chrysosporium

Molecule: O=CCc1ccccc1 [phenylacetaldehyde]
Km (PcAad1p): 527 ± 72.5 µM

Km (ScAad10^-35Cp): 608 ± 246 µM
Molecule: O=Cc1ccc(CO)o1 [hydroxymethylfurfural]

Molecule: COc1ccc(C=O)cc1 [4-methoxybenzaldehyde]
Km (PcAad1p): 87.3 ± 116 µM

B1: PcAad1p (Phanerodontia chrysosporium) (protein)
chain: T1 sequence (Q01752 1-385)
notes: full length, plasmid pGS-21a-PcAad1, N-terminal His6-GST and C-terminal His6 tags kept, E. coli BL21 Star; coding primer starts … (MNIWAP)
Km (purified protein): 171 ± 36.7 µM
Vmax (purified protein): 2.40 ± 0.27 in micromoles per minute per mg
